Results on one compound are retold here after patent publication US7251525B2, “Treatment of arrhythmias via inhibition of a multifunctional calcium/calmodulin-dependent protein kinase” (The Board of Trustees of the Leland Stanford Jr. University, priority 1997, dated 2007).

Experiment [1] addresses CaM kinase (Oryctolagus cuniculus, UniProt O77708). As to the kind of experiment: In vitro CaM kinase activity in left ventricular tissue homogenate. Type of experiment: biochemical, rabbit. To be noted: LV tissue homogenate; 0-100 μmol/l. As to the method:
FIG. 5. Effects of KN-93 and KN-92 on CaM kinase activity in vitro. CaM kinase activity in left ventricular tissue homogenate was assayed as described in Example 5, Experimental Methods. […] The solid line represents a fit to the KN-93 data using the Hill equation.
Left ventricular homogenate was prepared as follows: after removal of the heart, it was placed in nominally Ca^2+ free ice-cold HEPES-buffered Tyrode's solution. One to two grams of the left ventricular free wall was cut away, coarsely minced, and suspended in 5-10 ml of cold homogenization buffer (mmol/l: 20 PIPES, 1 EDTA, 1 EGTA, 2 DTT, 10 sodium pyrophosphate, and 50-100 μg/ml leupeptin) at pH 7.0. Tissue suspension was homogenized at 4° C. using 3-10 sec bursts of a Polytron with 30 sec pauses inbetween bursts. The homogenate was then centrifuged at ˜10,000×g for 20 min at 4° C. using a JA-20 rotor. The supemate was removed and used directly in the assay. Protein concentration was measured by the method of Bradford, using BSA as the standard.
Assay of CaM kinase activity was performed essentially as described by Waldmann et al. with a few modifications. […] Calcium/calmodulin-dependent phosphorylation of the autocamtide 3 substrate was then quantitated as described. Calcium/calmodulin-independent CaM kinase activity was quantitated as described above, but Ca^2+ was omitted from the assay solution. […]

The subject of experiment [2] is CaM kinase. The conditions noted are these: congener used as experimental control; cited from earlier work.
For experiment [3], the system named is protein kinase A (PKA). The conditions noted are these: cited from earlier work.
In experiment [4] the target is T1, L-type Ca2+ current (ICa) (Oryctolagus cuniculus, UniProt P15381).
T1 construct: endogenous in cells; host or cells: freshly isolated New Zealand White rabbit ventricular myocytes
As to the kind of experiment: Whole cell voltage clamp of L-type Ca2+ current in single ventricular myocytes. Type of experiment: cell-based, rabbit.

The test system of experiment [5] is protein kinase C (PKC). To be noted: cited from earlier work.
The test system of experiment [6] is isolated rabbit hearts. As to the kind of experiment: Clofilium-induced early afterdepolarizations (EADs) in isolated perfused rabbit hearts. The conditions noted are these: pretreatment 0.5 μmol/l. The text has this: FIG. 1. […] Data tracings show (from top to bottom) monophasic action potentials (MAP) and left ventricular (LV) pressure. The horizontal lines to the left of the LV pressure tracings (top to bottom) indicate 100 mm Hg and 0 mm Hg levels and 850 ms for panels A and B. All experiments with isolated hearts consisted of 3 periods. A fourth period (experimental period 4) was only added in hearts with EADs. Experimental periods are labeled 1-4 (top of page for both panels A and B). Experimental period 1 measurements represent control and follow >10 min of stabilization. […] Period 3 measurements follow addition of clofilium (7.5 μmole/l) and are taken at EAD initiation or from the longest action potential duration recorded over 30 min. Multiple EADs are seen as 2 oscillations during repolarization on the MAP tracings in experimental period 3. Secondary elevations in LV pressure coinciding with EADs are also seen in the LV pressure tracing in experimental period 3. Experimental period 4 measurements follow EAD termination by addition of nifedipine (10 μmole/l) (shown above) or Cd^2+ (200-500 μmole/l) (data not shown). The horizontal bars indicate the experimental conditions for both panels A and B. (B) Experimental design for isolated rabbit hearts treated with CaM kinase inhibitor KN-93. Arrangement of data tracings is the same as in FIG. 1A (above). Experimental periods are also the same as in FIG. 1A (above) except the active CaM kinase inhibitor KN-93 (0.5 μmole/l) was added 10 min prior to period 2 measurements. […] (C) Continuous record of EAD termination by nifedipine (10 μM) in a heart paced at a cycle length of 1500 ms. Data tracings show MAP with single EADs (top) and LV pressure (bottom). The horizontal lines to the left of the LV pressure tracings indicate 50 mm Hg and 0 mm Hg pressure levels (top to bottom). EAD termination occurs prior to the first discernible decrease (i.e. >10% below baseline) in LV pressure. The vertical arrow marks the first beat of EAD termination.
New Zealand White rabbits of either gender (2.7-3.2 kg) were treated with a heparin bolus (150 U/kg IV) and killed by pentobarbital (50 mg/kg IV) overdose. Hearts were rapidly excised and placed in ice-cold Tyrode's solution for dissection of extracardiac tissue. (Tyrode's solution was composed of (mmol/l) NaCl (130.0), NaHCO3 (20.0), glucose (5.6), KCl (3.0), CaCl2 (2.0), NaH2PO4 (1.8), MgCl24H2O(0.7).) The aorta was cannulated, and perfused retrograde with Tyrode's solution. The perfusate (200 ml) was recirculated through a warming bath and filling pressure was adjusted to 20 cm of H2O. Recirculation time was ˜1 min, based on the time to decrease in left ventricular (LV) pressure following addition of ICa blockers to the recirculating perfusate. Temperature was monitored using a thermistor probe positioned in the right ventricle (RV) and maintained at 33±1° C. by a closed loop feed back system. The perfusate was vigorously bubbled with 95% O2, 5% CO2 and pH was monitored throughout the experiments and adjusted to 7.4 with LN NaOH or HCl, as appropriate. Both atria were removed and drains were placed in the RV and LV apices. An electrocardiogram (ecg) lead was sutured to the LV apex and the proximal pulmonary artery. Epicardial pacing wires were inserted into the RV free wall. Bradycardia was produced by crushing the AV node with a forceps. Epicardial pacing maintained a minimum cycle length of 1500 ms (heart rate of 40 beats/min). Pacing output was adjusted to twice diastolic threshold. In most experiments LV pressure was continuously monitored with a solid state transducer (Camino Laboratories) placed in a saline filled latex balloon. The balloon was secured with a purse string suture around the left atrial remnant and pressure was adjusted to maximize the LV developed pressure (LVDP) keeping the LV end diastolic pressure <10 mmHg. […]

SMILES strings stand for the structures.

T1 sequence (P15381 whole entry, other chains not shown): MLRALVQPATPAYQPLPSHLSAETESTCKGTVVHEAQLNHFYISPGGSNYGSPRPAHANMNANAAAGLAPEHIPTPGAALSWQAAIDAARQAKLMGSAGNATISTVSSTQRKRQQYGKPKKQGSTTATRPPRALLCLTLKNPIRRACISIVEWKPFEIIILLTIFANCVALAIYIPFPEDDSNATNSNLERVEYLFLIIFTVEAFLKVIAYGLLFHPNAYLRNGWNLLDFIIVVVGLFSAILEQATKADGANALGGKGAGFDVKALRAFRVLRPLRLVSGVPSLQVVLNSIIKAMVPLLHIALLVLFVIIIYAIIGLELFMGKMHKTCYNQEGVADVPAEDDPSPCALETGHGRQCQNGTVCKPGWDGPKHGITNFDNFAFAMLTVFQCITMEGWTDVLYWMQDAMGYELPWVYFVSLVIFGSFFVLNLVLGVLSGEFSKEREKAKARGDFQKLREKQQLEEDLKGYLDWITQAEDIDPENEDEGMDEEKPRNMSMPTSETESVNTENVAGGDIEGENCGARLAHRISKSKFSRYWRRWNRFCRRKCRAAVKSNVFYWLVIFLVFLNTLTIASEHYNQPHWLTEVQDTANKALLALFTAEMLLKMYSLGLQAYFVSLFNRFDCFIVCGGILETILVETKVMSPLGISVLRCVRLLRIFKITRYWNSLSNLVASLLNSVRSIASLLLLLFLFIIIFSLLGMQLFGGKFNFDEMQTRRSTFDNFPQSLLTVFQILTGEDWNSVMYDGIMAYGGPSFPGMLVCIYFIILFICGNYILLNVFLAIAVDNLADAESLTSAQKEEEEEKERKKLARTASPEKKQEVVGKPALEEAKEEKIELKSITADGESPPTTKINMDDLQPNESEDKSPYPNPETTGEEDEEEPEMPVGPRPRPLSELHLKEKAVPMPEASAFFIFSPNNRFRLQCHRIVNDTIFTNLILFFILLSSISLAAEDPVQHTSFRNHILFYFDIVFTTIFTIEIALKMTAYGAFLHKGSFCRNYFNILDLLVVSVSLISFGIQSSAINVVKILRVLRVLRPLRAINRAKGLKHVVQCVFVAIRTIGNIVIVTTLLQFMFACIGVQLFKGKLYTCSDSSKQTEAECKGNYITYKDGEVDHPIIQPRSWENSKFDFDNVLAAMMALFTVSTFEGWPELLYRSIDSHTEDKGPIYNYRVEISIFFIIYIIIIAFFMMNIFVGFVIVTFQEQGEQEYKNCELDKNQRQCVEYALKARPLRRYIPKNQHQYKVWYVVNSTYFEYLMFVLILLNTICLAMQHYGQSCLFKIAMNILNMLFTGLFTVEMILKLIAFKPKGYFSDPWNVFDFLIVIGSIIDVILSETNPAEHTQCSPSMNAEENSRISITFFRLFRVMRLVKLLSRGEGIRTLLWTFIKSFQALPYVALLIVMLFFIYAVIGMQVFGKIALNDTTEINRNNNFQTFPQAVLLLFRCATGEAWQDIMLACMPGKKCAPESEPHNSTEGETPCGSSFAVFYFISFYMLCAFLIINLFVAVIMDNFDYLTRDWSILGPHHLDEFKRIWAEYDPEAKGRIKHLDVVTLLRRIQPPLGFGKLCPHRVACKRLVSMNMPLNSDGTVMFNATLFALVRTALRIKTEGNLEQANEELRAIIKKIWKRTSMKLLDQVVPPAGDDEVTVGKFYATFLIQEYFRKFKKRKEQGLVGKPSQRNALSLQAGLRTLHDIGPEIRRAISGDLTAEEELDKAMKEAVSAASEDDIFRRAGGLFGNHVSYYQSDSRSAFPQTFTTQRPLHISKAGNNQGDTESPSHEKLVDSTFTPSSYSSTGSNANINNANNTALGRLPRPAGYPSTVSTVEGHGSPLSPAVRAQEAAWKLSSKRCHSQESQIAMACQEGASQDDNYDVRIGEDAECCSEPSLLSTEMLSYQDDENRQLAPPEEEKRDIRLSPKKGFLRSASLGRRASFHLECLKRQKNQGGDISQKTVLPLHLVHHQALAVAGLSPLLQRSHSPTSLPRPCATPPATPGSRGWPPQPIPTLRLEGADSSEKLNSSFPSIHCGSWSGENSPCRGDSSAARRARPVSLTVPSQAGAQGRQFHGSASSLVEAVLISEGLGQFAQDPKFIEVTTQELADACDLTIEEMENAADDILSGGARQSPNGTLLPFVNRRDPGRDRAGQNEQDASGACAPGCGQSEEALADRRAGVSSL
T1 sequence (P13806 27-960 partner limits assumed, other chains not shown): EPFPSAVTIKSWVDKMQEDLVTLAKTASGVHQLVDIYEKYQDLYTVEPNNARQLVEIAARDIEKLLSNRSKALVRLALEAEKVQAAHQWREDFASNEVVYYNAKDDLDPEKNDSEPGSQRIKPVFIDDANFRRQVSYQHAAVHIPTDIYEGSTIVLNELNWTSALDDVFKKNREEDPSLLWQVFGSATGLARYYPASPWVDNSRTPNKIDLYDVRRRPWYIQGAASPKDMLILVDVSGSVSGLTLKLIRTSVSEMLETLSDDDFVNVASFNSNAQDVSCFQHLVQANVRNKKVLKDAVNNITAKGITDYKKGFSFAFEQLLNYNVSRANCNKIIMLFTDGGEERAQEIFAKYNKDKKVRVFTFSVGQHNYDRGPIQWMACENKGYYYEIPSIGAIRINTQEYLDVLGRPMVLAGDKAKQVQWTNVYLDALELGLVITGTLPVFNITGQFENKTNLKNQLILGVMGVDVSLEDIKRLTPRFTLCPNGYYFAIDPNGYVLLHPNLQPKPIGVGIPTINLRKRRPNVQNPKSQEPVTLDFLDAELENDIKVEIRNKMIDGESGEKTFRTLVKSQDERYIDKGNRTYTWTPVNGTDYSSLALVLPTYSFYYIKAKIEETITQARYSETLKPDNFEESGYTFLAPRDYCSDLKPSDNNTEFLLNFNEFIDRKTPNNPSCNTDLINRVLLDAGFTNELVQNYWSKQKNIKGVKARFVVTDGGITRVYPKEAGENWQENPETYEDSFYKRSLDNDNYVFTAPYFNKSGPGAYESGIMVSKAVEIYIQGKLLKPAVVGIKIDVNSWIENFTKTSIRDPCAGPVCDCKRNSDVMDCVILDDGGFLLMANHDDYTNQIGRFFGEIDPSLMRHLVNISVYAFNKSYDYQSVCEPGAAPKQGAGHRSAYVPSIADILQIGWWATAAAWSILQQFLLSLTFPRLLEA
T1 sequence (P13806 961-1106 partner limits assumed, other chains not shown): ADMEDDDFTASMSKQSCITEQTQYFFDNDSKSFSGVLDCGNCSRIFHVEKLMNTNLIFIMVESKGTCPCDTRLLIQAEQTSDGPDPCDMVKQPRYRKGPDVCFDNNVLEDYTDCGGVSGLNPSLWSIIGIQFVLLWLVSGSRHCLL
CaM kinase (Oryctolagus cuniculus, UniProt O77708), sequence (O77708 2-533): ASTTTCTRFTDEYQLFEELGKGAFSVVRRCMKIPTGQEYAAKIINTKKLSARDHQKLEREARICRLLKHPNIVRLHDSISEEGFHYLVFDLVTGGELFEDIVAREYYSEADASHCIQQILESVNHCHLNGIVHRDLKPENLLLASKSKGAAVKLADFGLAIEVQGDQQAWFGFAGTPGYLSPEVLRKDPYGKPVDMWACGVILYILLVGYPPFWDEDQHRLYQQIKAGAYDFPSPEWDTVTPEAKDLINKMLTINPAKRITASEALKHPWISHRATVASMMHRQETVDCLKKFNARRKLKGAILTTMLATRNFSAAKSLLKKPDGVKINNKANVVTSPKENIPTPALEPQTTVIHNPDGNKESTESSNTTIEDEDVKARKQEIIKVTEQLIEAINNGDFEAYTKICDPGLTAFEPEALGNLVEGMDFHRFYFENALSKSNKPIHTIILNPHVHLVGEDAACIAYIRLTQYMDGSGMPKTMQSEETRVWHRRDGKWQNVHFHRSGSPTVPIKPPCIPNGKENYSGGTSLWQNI

`COc1ccc(S(=O)(=O)Nc2ccccc2CN(C)CC=Cc2ccc(Cl)cc2)cc1` [KN-92, 2-N-(4-methoxybenzenesulfonyl)-amino-N-(4-chlorocinnamyl)N-methylbenzylamine]: the “inhibition of CaM kinase activity” value in experiment [1] was “did not cause appreciable inhibition”. Also, the “CaM kinase inhibitory activity” value in experiment [2] is reported as “without CaM kinase inhibitory activity”. For the same compound, the “effects on protein kinase A (PKA)” value in experiment [3] is “neither KN-93 nor KN-92 have appreciable effects”. Moreover, the “apparent voltage dependence of ICa activation” value in experiment [4] was “Neither KN-92 or KN-93 shifted”. Besides, in experiment [4] (0.5 μmol/l external application, cells dialyzed with BAPTA), the “steady state inhibition of peak ICa” value is 36.2±1.9%. The “effects on protein kinase C (PKC)” value in experiment [5] is recorded as “neither KN-93 nor KN-92 have appreciable effects”. Also, in experiment [6] (clofilium 7.5 μM), the “EADs in response to clofilium (hearts with EADs/hearts)” value was 10/11 and the “multiple EADs (hearts with multiple EADs/hearts)” value is 7/11. Also, the “left ventricular developed pressure (LVDP) following clofilium” value in experiment [6] (clofilium 7.5 μmole/l) was “increased significantly”.
